Measured values as given in ChEMBL document CHEMBL1155824, “Synthesis and antitumor activity of cyclodepsipeptide zygosporamide and its analogues” (Bioorg Med Chem Lett, 2008).

How the values were obtained:
Format in all cases: functional, cell-based
[1] = tested on: HCT-116; assay: Cytotoxicity against human HCT116 cells
[2] = tested on: SF-268; assay: Cytotoxicity against human SF268 cells
[3] = tested on: MDA-MB-231; assay: Cytotoxicity against human MDA-MB-231 cells
[4] = tested on: SF-295; assay: Cytotoxicity against human SF295 cells
[5] = tested on: A549; assay: Cytotoxicity against human A549 cells

SMILES	IC50 [1] [µM]	IC50 [2] [µM]	IC50 [3] [µM]	IC50 [4] [µM]	IC50 [5] [µM]
CC(C)C[C@@H]1OC(=O)[C@H](Cc2ccccc2)NC(=O)[C@H](C)NC(=O)[C@@H](CC(C)C)NC(=O)[C@H](Cc2ccccc2)NC1=O	> 50	> 50	> 50	> 50	> 50
CC(C)C[C@@H]1NC(=O)[C@@H](CC(C)C)NC(=O)[C@H](Cc2ccccc2)NC(=O)[C@H](CC(C)C)OC(=O)[C@H](C)NC1=O	2.7	8.8	2.8	6	> 50
CC(C)C[C@@H]1NC(=O)[C@@H](CC(C)C)NC(=O)[C@H](C)NC(=O)[C@H](CC(C)C)OC(=O)[C@H](Cc2ccccc2)NC1=O	> 50	35	7.5	19.7	31
CC(C)C[C@@H]1NC(=O)[C@@H](C)NC(=O)[C@H](Cc2ccccc2)NC(=O)[C@H](CC(C)C)OC(=O)[C@H](Cc2ccccc2)NC1=O	2.1	10.4	5	8.7	> 50
CC(C)C[C@@H]1NC(=O)[C@@H](CC(C)C)NC(=O)[C@H](Cc2ccccc2)NC(=O)[C@H](C)OC(=O)[C@H](Cc2ccccc2)NC1=O	7.8	31	> 50	32	> 50
CC(C)C[C@@H]1NC(=O)[C@H](Cc2ccccc2)NC(=O)[C@H](CC(C)C)NC(=O)[C@@H](CC(C)C)NC(=O)[C@H](Cc2ccccc2)NC1=O	1.9	20.5	> 50	14.4	21
CC(=O)O[C@H]1C(=O)[C@@]2(C)[C@H]([C@H](OC(=O)c3ccccc3)[C@]3(O)C[C@H](OC(=O)[C@H](O)[C@@H](NC(=O)c4ccccc4)c4ccccc4)C(C)=C1C3(C)C)[C@]1(OC(C)=O)CO[C@@H]1C[C@@H]2O [PACLITAXEL]	0.0136	0.0153	0.0405	0.29	0.0231
CC(C)C[C@@H]1NC(=O)[C@@H](CC(C)C)NC(=O)[C@H](Cc2ccccc2)NC(=O)[C@H](CC(C)C)OC(=O)[C@H](Cc2ccccc2)NC1=O [ZYGOSPORAMIDE]	22	4.6	5.7	4.2	2.5
